Data as given in PubChem BioAssay AID330 (DTP/NCI, 2004).
“And” between values parts separate entries of the source, which are not always exact repeats. Equal values may be shown once. Inconclusive results and toxic doses are left out.

Tested on: P388 leukemia ip, CD2F1 mice, survival T/C
Assay: NCI In Vivo Anticancer Drug Screen. Data for tumor model P388 Leukemia (intraperitoneal) in CD2F1 (CDF1) mice
Conditions: endpoint: median survival time, higher = longer survival
Summary of the method: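 Mice carrying the transplanted tumor received test compound or vehicle. Survival was recorded in each group, and the value is the treated-group measurement divided by that of the vehicle-treated control group.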

[1] = dose: 60.0 mg/kg/injection, schedule: Q01DX005 (ip), vehicle: saline with Tween-80
[2] = dose: 240.0 mg/kg/injection, schedule: Q01DX005 (ip), vehicle: saline with Tween-80
[3] = dose: 50.0 mg/kg/injection, schedule: Q01DX005 (ip), vehicle: Klucel (hydroxypropylcellulose) (HPC)
[4] = dose: 100.0 mg/kg/injection, schedule: Q01DX005 (ip), vehicle: Klucel (hydroxypropylcellulose) (HPC)
[5] = dose: 200.0 mg/kg/injection, schedule: Q01DX005 (ip), vehicle: Klucel (hydroxypropylcellulose) (HPC)
[6] = dose: 50.0 mg/kg/injection, schedule: Q01DX005 (ip), vehicle: saline with Tween-80
[7] = dose: 100.0 mg/kg/injection, schedule: Q01DX005 (ip), vehicle: saline with Tween-80
[8] = dose: 200.0 mg/kg/injection, schedule: Q01DX005 (ip), vehicle: saline with Tween-80
[9] = dose: 120.0 mg/kg/injection, schedule: Q01DX005 (ip), vehicle: saline with Tween-80
[10] = dose: 50.0 mg/kg/injection, schedule: Q01DX009 (ip), vehicle: saline
[11] = dose: 200.0 mg/kg/injection, schedule: Q01DX009 (ip), vehicle: saline with Tween-80
[12] = dose: 30.0 mg/kg/injection, schedule: Q01DX005 (ip), vehicle: Klucel (hydroxypropylcellulose) (HPC)
[13] = dose: 60.0 mg/kg/injection, schedule: Q01DX005 (ip), vehicle: Klucel (hydroxypropylcellulose) (HPC)
[14] = dose: 50.0 mg/kg/injection, schedule: Q01DX009 (ip), vehicle: saline with Tween-80

Cc1cc(C)c2c(n1)sc1c(=O)n(N)c(C)nc12
T/C [1]: 87 % of control
T/C [2]: 94 % of control and 95 % of control

Cc1ccc(OP(=O)(Oc2ccc(C)cc2)Oc2ccc(C)cc2)cc1.Cc1ccc(OP(=O)(Oc2ccc(C)cc2)Oc2ccc(C)cc2)cc1.Cc1ccc(OP(=O)(Oc2ccc(C)cc2)Oc2ccc(C)cc2)cc1.Cc1ccc(OP(=O)(Oc2ccc(C)cc2)Oc2ccc(C)cc2)cc1.[Ni+2].[O-][Cl+3]([O-])([O-])O
T/C (dose: 20.0 mg/kg/injection, schedule: Q01DX001 (ip), vehicle: Klucel (hydroxypropylcellulose) (HPC)): 100 % of control
T/C (dose: 40.0 mg/kg/injection, schedule: Q01DX001 (ip), vehicle: Klucel (hydroxypropylcellulose) (HPC)): 106 % of control
T/C (dose: 80.0 mg/kg/injection, schedule: Q01DX001 (ip), vehicle: Klucel (hydroxypropylcellulose) (HPC)): 97 % of control

COC(=O)[C@@]12OC[C@]34[C@H]([C@@H](O)[C@@H]1O)[C@@]1(C)CC(=O)C(O)=C(C)[C@@H]1C[C@H]3OC(=O)[C@H](OC(=O)/C=C(\C)C1(C)CO1)[C@@H]24 (stereo not given in full)
T/C (dose: 0.12 mg/kg/injection, schedule: Q01DX009 (ip), vehicle: saline + alcohol): 119 % of control
T/C (dose: 0.5 mg/kg/injection, schedule: Q01DX009 (ip), vehicle: saline + alcohol): 105 % of control

NC(N)=NNC(O)(C(=O)O)C(=O)O
T/C [3]: 100 % of control
T/C [4]: 96 % of control
T/C [5]: 96 % of control

CC1=Nc2ccccc2OC2(C1)C(C1COC(C)(C)O1)OC1OC(C)(C)OC12 (stereo not given)
T/C [6]: 99 % of control
T/C [7]: 95 % of control
T/C [8]: 104 % of control

CCOC(=O)C(c1ccccc1)c1cccc(C(C(=O)OCC)c2ccccc2)n1 (stereo not given)
T/C [1]: 93 % of control
T/C [9]: 90 % of control
T/C [2]: 87 % of control

CNC(=O)OCc1c(COC(=O)NC)c(-c2ccccc2)n(C)c1C
T/C (dose: 50.0 mg/kg/injection, schedule: Q01DX009 (ip), vehicle: distilled water + Tween-80): 90 % of control

C=C1C(=O)OCC1C(=O)O (stereo not given)
T/C (dose: 8.0 mg/kg/injection, schedule: Q01DX009 (ip), vehicle: saline): 121 % of control
T/C (dose: 16.0 mg/kg/injection, schedule: Q01DX009 (ip), vehicle: saline): 114 % of control
T/C (dose: 64.0 mg/kg/injection, schedule: Q01DX009 (ip), vehicle: saline): 103 % of control

C(=C\c1ccco1)/c1ccnnc1
T/C (dose: 12.5 mg/kg/injection, schedule: Q01DX009 (ip), vehicle: saline): 97 % of control
T/C (dose: 25.0 mg/kg/injection, schedule: Q01DX009 (ip), vehicle: saline): 109 % of control
T/C [10]: 108 % of control and 97 % of control

N#CC(=C1C=CC(=NO)C=C1)c1ccccc1
T/C [11]: 115 % of control

CCCCN=NN(C)CCCC
T/C (dose: 12.5 mg/kg/injection, schedule: Q01DX005 (ip), vehicle: saline with Tween-80): 107 % of control
T/C (dose: 25.0 mg/kg/injection, schedule: Q01DX005 (ip), vehicle: saline with Tween-80): 117 % of control

Clc1ccc(C2C3CCN2CC3)cc1 (stereo not given)
T/C (dose: 0.78 mg/kg/injection, schedule: Q01DX009 (ip), vehicle: saline): 100 % of control
T/C (dose: 1.56 mg/kg/injection, schedule: Q01DX009 (ip), vehicle: saline): 96 % of control
T/C (dose: 3.12 mg/kg/injection, schedule: Q01DX009 (ip), vehicle: saline): 94 % of control

COc1nnnc2c1sc1ccccc12
T/C (dose: 100.0 mg/kg/injection, schedule: Q01DX001 (ip), vehicle: saline with Tween-80): 101 % of control
T/C (dose: 200.0 mg/kg/injection, schedule: Q01DX001 (ip), vehicle: saline with Tween-80): 104 % of control
T/C (dose: 400.0 mg/kg/injection, schedule: Q01DX001 (ip), vehicle: saline with Tween-80): 102 % of control

C[N+]12CCN(CC1)CC2
T/C (dose: 100.0 mg/kg/injection, schedule: Q04DX003 (ip), vehicle: saline): 104 % of control
T/C (dose: 200.0 mg/kg/injection, schedule: Q04DX003 (ip), vehicle: saline): 95 % of control
T/C (dose: 400.0 mg/kg/injection, schedule: Q04DX003 (ip), vehicle: saline): 100 % of control

COc1ccc(C2C(C(=O)NCc3ccccc3)=C(C)NC(C)=C2C(=O)NCc2ccccc2)cc1OC
T/C (dose: 15.0 mg/kg/injection, schedule: Q01DX005 (ip), vehicle: Klucel (hydroxypropylcellulose) (HPC)): 100 % of control
T/C [12]: 100 % of control
T/C [13]: 100 % of control and 88 % of control

Cc1cc2c(cc1C)NC1=C(N2)OC(c2ccc3c(c2)OCO3)C1=O (stereo not given)
T/C [12]: 88 % of control
T/C [13]: 101 % of control and 97 % of control
T/C (dose: 120.0 mg/kg/injection, schedule: Q01DX005 (ip), vehicle: Klucel (hydroxypropylcellulose) (HPC)): 100 % of control and 104 % of control

N#Cc1c(-c2cccn(-c3ccccc3)c2=O)cc(-c2ccccc2)[nH]c1=O
T/C [3]: 88 % of control
T/C [4]: 89 % of control
T/C [5]: 110 % of control

O=c1[nH]c(=O)n(C2OC(CO)C(O)C2O)cc1Br (stereo not given)
T/C (dose: 50.0 mg/kg/injection, schedule: Q01DX005 (ip), vehicle: saline): 97 % of control
T/C (dose: 100.0 mg/kg/injection, schedule: Q01DX005 (ip), vehicle: saline): 101 % of control
T/C (dose: 200.0 mg/kg/injection, schedule: Q01DX005 (ip), vehicle: saline): 102 % of control

COC(=O)n1oc2ccccc2c1=O
T/C (dose: 100.0 mg/kg/injection, schedule: Q04DX002 (ip), vehicle: Klucel (hydroxypropylcellulose) (HPC)): 99 % of control
T/C (dose: 200.0 mg/kg/injection, schedule: Q04DX002 (ip), vehicle: Klucel (hydroxypropylcellulose) (HPC)): 101 % of control
T/C (dose: 400.0 mg/kg/injection, schedule: Q04DX002 (ip), vehicle: Klucel (hydroxypropylcellulose) (HPC)): 101 % of control

Brc1c(Br)c(Br)c2n[nH]nc2c1Br
T/C (dose: 25.0 mg/kg/injection, schedule: Q01DX009 (ip), vehicle: saline with Tween-80): 103 % of control
T/C [14]: 106 % of control
T/C (dose: 100.0 mg/kg/injection, schedule: Q01DX009 (ip), vehicle: saline with Tween-80): 103 % of control
T/C [11]: 115 % of control

Cc1cc2c(cc1S(=O)(=O)O)C1C(C3C2C2(Cl)C(Cl)=C(Cl)C3(Cl)C2(Cl)Cl)C2(Cl)C(Cl)=C(Cl)C1(Cl)C2(Cl)Cl (stereo not given)
T/C [10]: 101 % of control
T/C (dose: 100.0 mg/kg/injection, schedule: Q01DX009 (ip), vehicle: saline): 92 % of control
T/C (dose: 200.0 mg/kg/injection, schedule: Q01DX009 (ip), vehicle: saline): 92 % of control

CC(=O)NS(=O)(=O)c1ccc(N=NC2C(=O)N(C(=O)c3ccc(Cl)cc3)N=C2C)cc1 (stereo not given)
T/C (dose: 1.5 mg/kg/injection, schedule: Q01DX001 (ip), vehicle: saline with Tween-80): 100 % of control
T/C (dose: 3.0 mg/kg/injection, schedule: Q01DX001 (ip), vehicle: saline with Tween-80): 104 % of control
T/C (dose: 6.0 mg/kg/injection, schedule: Q01DX001 (ip), vehicle: saline with Tween-80): 107 % of control
T/C (dose: 12.0 mg/kg/injection, schedule: Q01DX001 (ip), vehicle: saline with Tween-80): 100 % of control
T/C (dose: 12.5 mg/kg/injection, schedule: Q01DX001 (ip), vehicle: saline with Tween-80): 94 % of control

O=[N+]([O-])C1CCC(N=Nc2c(O)ccc3ccccc23)CC1 (stereo not given)
T/C [1]: 96 % of control
T/C [9]: 99 % of control
T/C [2]: 99 % of control

Cc1cc(C)nc(Nc2nnc(Nc3cc(C)cc(C)n3)c3ccccc23)c1
T/C [6]: 96 % of control
T/C [7]: 93 % of control
T/C [8]: 87 % of control

CS/C(=N/N=C(\C)c1ccccn1)[Se][Se]/C(=N/N=C(\C)c1ccccn1)SC
T/C (dose: 6.25 mg/kg/injection, schedule: Q01DX009 (ip), vehicle: saline with Tween-80): 90 % of control
T/C (dose: 12.5 mg/kg/injection, schedule: Q01DX009 (ip), vehicle: saline with Tween-80): 97 % of control
T/C [14]: 93 % of control
T/C [11]: 93 % of control

COc1cc(/C=C/C(=O)Sc2ccccc2)cc(OC)c1O
T/C [1]: 109 % of control
T/C [9]: 105 % of control
T/C [2]: 100 % of control
